Test results published in patent publication US11236122B2, “Triterpene amine derivatives” (DFH THERAPEUTICS, priority 2018, dated 2022).

How the values were obtained:
WT pNL4-3 = test: CA-SP1 accumulation assay, WT NL4-3; assay type: cell-based, HIV-1; settings: 10 nM compound, HeLa or 293T cells
Description: (§1) Cell culture, plasmids and transfections. The MT-4 T-cell line was maintained in RPMI-1640 medium supplemented with 10% (vol/vol) fetal bovine serum (FBS), 2 mM glutamine, 100 U/mL penicillin and 100 μg/mL streptomycin at 37° C. in a humidified 5% CO2 atmosphere. HeLa and 293T cells were maintained in Dulbecco's modified Eagle's medium (DMEM) supplemented with 5% (vol/vol) FBS, 2 mM glutamine, 100 U/mL penicillin and 100 μg/mL streptomycin. Molecular clones used in this study were WT pNL4-3 and the derivative encoding a Val-to-Ala mutation at SP1 residue 7, referred to as SP1-V7A. The MT-4 T-cell line was transfected the DEAE/dextran procedure; HeLa and 293T cells were transfected with linear polyethylenimine (L-PEI) or Lipofectamine 2000 (Invitrogen) as recommended by the supplier.
(§2) CA-SP1 accumulation assay. For CA-SP1 accumulation assays, HeLa or 293T cells were transfected with WT pNL4-3 or the SP1-V7A derivative. At 24 h post-transfection, cells were starved in Met/Cys-free medium for 30 min and metabolically labeled with [^35S]Met/Cys-Pro-mix (Amersham) for 2-3 h. Maturation inhibitors were maintained in the cultures throughout the transfection and labeling period. Viruses were collected by ultracentrifugation at 99,000×g for 45-60 min. Virus pellets were resuspended in Triton X-100 lysis buffer [300 mM NaCl, 50 mM Tris-HCl (pH 7.5), 0.5% Triton X-100, 10 mM iodoacetamide, and protease inhibitor cocktail tablets (Roche)]. CA and CA-SP1 proteins were separated on 13.5-15% polyacrylamide gels by SDS-polyacrylamide gel electrophoresis, exposed to a phosphorimager plate (Fuji) and quantified by Quantity One software (Bio-Rad).

in vitro = assay type: cell-based; settings: human
Description: (§3) Human PBMC Preparation. Fresh human PBMCs were isolated from screened donors, seronegative for HIV and HBV (Biological Specialty Corporation, Colmar, Pa.). Cells were pelleted/washed 2-3 times by low speed centrifugation and resuspension in Dulbecco's phosphate buffered saline (PBS) to remove contaminating platelets. The leukophoresed blood was then diluted 1:1 with PBS and layered over 14 mL of Ficoll-Hypaque density gradient (Lymphocyte Separation Medium, Cell Grow #85-072-CL, density 1.078+/−0.002 g/mL) in a 50 mL centrifuge tube and then centrifuged for 30 min at 600×g. Banded PBMCs were gently aspirated from the resulting interface and subsequently washed twice with PBS by low speed centrifugation. After the final wash, cells were enumerated by trypan blue exclusion and re-suspended at 1×10^6 cells/mL in RPMI 1640 supplemented with 15% Fetal Bovine Serum (FBS), 2 mM L-glutamine, 100 U/mL penicillin, […] streptomycin, and 4 μg/mL Phytohemagglutinin (PHA; Sigma, St. Louis, Mo.; cat #L1668). The cells were allowed to incubate for 48-72 h at 37° C. After incubation, PBMCs were centrifuged and resuspended in RPMI 1640 with 15% FBS, L-glutamine, penicillin, streptomycin, non-essential amino acids (MEM/NEAA; Hyclone; cat #SH30238.01), and 20 U/mL recombinant human IL-2 (R&D Systems Inc., Minneapolis, Minn.; cat #202IL). PBMCs were maintained in this medium at a concentration of 1-2×10^6 cells/mL, with twice-weekly medium changes until they were used in the assay protocol. Monocytes-derived-macrophages were depleted from the culture as the result of adherence to the tissue culture flask.
(§4) PBMC Assay. For the standard PBMC assay, PHA stimulated cells from at least two normal donors were pooled (mixed together), diluted in fresh medium to a final concentration of 1×10^6 cells/mL, and plated in the interior wells of a 96 well round bottom microplate at 50 μL/well (5×10^4 cells/well) in a standard formate developed by the Infectious Disease Research Department of the SRI. Pooling (mixing) of mononuclear cells from more than one donor was used to minimize the variability observed between individual donors, which results from quantitative and qualitative differences in HIV infection and overall response to the PHA and IL-2 of primary lymphocyte populations. Each plate contains virus control wells (cells plus virus) and experimental wells (drug plus cells plus virus). Test drug dilutions were prepared at a 2× concentration in microtiter tubes and 100 μL of each concentration was placed in appropriate wells using the standard format. 50 μL of a predetermined dilution of virus stock was placed in each test well (final MOI≈0.1). Separate plates were prepared identically without virus for drug cytotoxicity studies using an MTS assay system (described below; cytotoxicity plates also include compound control wells containing drug plus media without cells to control for colored compounds that affect the MTS assay). The PBMC cultures were maintained for seven days following infection at 37° C., 5% CO2. After this period, cell-free supernatant samples were collected for analysis of reverse transcriptase activity, and compound cytotoxicity was measured by addition of MTS to the separate cytotoxicity plates for determination of cell viability. Wells were also examined microscopically and any abnormalities were noted.
(§5) MTS Staining for PBMC Viability to Measure Cytotoxicity. At assay termination, the uninfected assay plates were stained with the soluble tetrazolium-based dye MTS (CellTiter 96 Reagent, Promega) to determine cell viability and quantify compound toxicity. MTS is metabolized by the mitochondria enzymes of metabolically active cells to yield a soluble formazan product, allowing the rapid quantitative analysis of cell viability and compound cytotoxicity. […] At termination of the assay, […] of MTS reagent was added per well and the microtiter plates were then incubated at 37° C., 5% CO2 to assess cell viability. […]

human PBMCs = test: in vitro; assay type: cell-based; settings: 7 days
Description: as §3, §4, §5

[1] = test system: panel of HIV-1 isolates in human PBMCs; test: PBMC antiviral assay against a panel of HIV-1 isolates (RT activity); assay type: cell-based; settings: Human immunodeficiency virus 1, PBMC
Description: Antiviral assays. To produce HIV-1 stocks, 293T cells were transfected with WT pNL4-3 or the SP1-V7A derivative and culture supernatants were collected 24 h post transfection. RT-normalized virus supernatants were used to infect MT-4 cells at room temperature for 30 min. Cells were then cultured in the presence of serial dilutions of compounds. At 4 d post-infection, the culture supernatants were subjected to RT assay to monitor viral replication. The 50% inhibitory concentrations (IC50s) were defined as compound concentrations that reduced RT levels to 50% those measured in the absence of inhibitor (DMSO only controls) using GraphPad Prism 6 software. The IC50s in primary peripheral blood mononuclear cells (PBMCs) were calculated with a multi-clade panel of HIV-1 isolates by Southern Research Institute (Frederick, Md.). The PBMCs were stimulated with phytohemagglutinin (PHA) and IL-2 prior to use in the antiviral assays.
Virus Isolates. Compound evaluation against a panel of HIV-1 isolates were performed by the Southern Research Institute (SRI). The viruses were chosen to include one isolate from each of the seven HIV-1 Group M envelope subtypes A, B, C, D, E, F, and G, as well as isolates from HIV-1 Groups O and N. In addition, various drug resistant HIV-1 isolates were included for evaluation. The HIV-1 isolates selected include CCR5-tropic and CXCR4-tropic isolates. Unless otherwise noted, all virus isolates were obtained from the NIH AIDS Research and Reference Reagent Program. Virus isolate 1022-48 was obtained from Dr. William A. Schief of Merck Research Laboratories. MDR769 and MDR807 were obtained from Dr. Thomas C. Merigan of Stanford University. A low passage stock of each virus was prepared using fresh human PBMCs and stored in liquid nitrogen. Pre-titered aliquots of each virus were removed from the freezer and thawed rapidly to rt in a biological safety cabinet immediately before use.
as §3
PBMC Assay. For the standard PBMC assay, PHA stimulated cells from at least two normal donors were pooled (mixed together), diluted in fresh medium to a final concentration of 1×10^6 cells/mL, and plated in the interior wells of a 96 well round bottom microplate at 50 μL/well (5×10^4 cells/well) in a standard formate developed by the Infectious Disease Research Department of the SRI. […]

pNL4-3 SP1-V7A = test: CA-SP1 accumulation assay, SP1-V7A derivative; assay type: cell-based, HIV-1; settings: 10 nM compound, HeLa or 293T cells
Description: as §1, §2

C=C(C)[C@@H]1CC[C@]2(CCNCCN3CCN(Cc4ccc5ccccc5c4)CC3)CC[C@]3(C)[C@H](CC[C@@H]4[C@@]5(C)CC[C@H](OC(=O)CC(C)(C)C(=O)O)C(C)(C)[C@@H]5CC[C@]43C)[C@@H]12 [Compound 51r, (3β)-17-[2-[[2-[4-(2-Naphthalenylmethyl)piperazin-1-yl]ethyl]amino]ethyl]-28-norlup-20(29)-en-3-ol, 3-(1-Hydrogen 2,2-Dimethylbutanedioate)]
% CA-SP1 Accumulation 10 nM NL4-3 (WT pNL4-3): 44.3%
CC50 at 7 days (in vitro): > 1000 nM
CC50 (human PBMCs): > 1000 nM
IC50 ([1]; isolate 92RW009, PBMC): > 1000 nM
IC50 ([1]; isolate 92UG001, PBMC): 25.5 nM
IC50 ([1]; isolate 93BR020, PBMC): 26 nM
IC50 ([1]; isolate 93BR029, PBMC): 22.3 nM
IC50 ([1]; isolate 93IN101, PBMC): 207 nM
IC50 ([1]; isolate 99UGA07412MI, PBMC): 370 nM
IC50 ([1]; isolate BCF02, PBMC): 62.3 nM
IC50 ([1]; isolate CMU02, PBMC): > 1000 nM
IC50 ([1]; isolate JV1083, PBMC): > 1000 nM
% CA-SP1 Accumulation 10 nM SP1 V7A (pNL4-3 SP1-V7A): 34.1 (3) %

C=C(C)[C@@H]1CC[C@]2(CCNCCN3CCN(Cc4cccc(F)c4)CC3)CC[C@]3(C)[C@H](CC[C@@H]4[C@@]5(C)CC[C@H](OC(=O)CC(C)(C)C(=O)O)C(C)(C)[C@@H]5CC[C@]43C)[C@@H]12 [Compound 51m, (3β)-17-[2-[[2-[4-(3-Fluorophenylmethyl)piperazin-1-yl]ethyl]amino]ethyl]-28-norlup-20(29)-en-3-ol, 3-(1-Hydrogen 2,2-Dimethylbutanedioate)]
% CA-SP1 Accumulation 10 nM NL4-3 (WT pNL4-3): 53.7%
CC50 at 7 days (in vitro): > 1000 nM
CC50 (human PBMCs): > 1000 nM
IC50 ([1]; isolate 92RW009, PBMC): 27.9 nM
IC50 ([1]; isolate 92UG001, PBMC): 7.9 nM
IC50 ([1]; isolate 93BR020, PBMC): 8.4 nM
IC50 ([1]; isolate 93BR029, PBMC): 10.8 nM
IC50 ([1]; isolate 93IN101, PBMC): 21.5 nM
IC50 ([1]; isolate 99UGA07412MI, PBMC): 17.8 nM
IC50 ([1]; isolate BCF02, PBMC): 16.7 nM
IC50 ([1]; isolate CMU02, PBMC): 18.8 nM
IC50 ([1]; isolate JV1083, PBMC): > 1000 nM
% CA-SP1 Accumulation 10 nM SP1 V7A (pNL4-3 SP1-V7A): 40.3 (3) %

C=C(C)[C@@H]1CC[C@]2(CCNCCN3CCN(Cc4cccc(Cl)c4)CC3)CC[C@]3(C)[C@H](CC[C@@H]4[C@@]5(C)CC[C@H](OC(=O)CC(C)(C)C(=O)O)C(C)(C)[C@@H]5CC[C@]43C)[C@@H]12 [Compound 51o, (3β)-17-[2-[[2-[4-(3-Chlorophenylmethyl)piperazin-1-yl]ethyl]amino]ethyl]-28-norlup-20(29)-en-3-ol, 3-(1-Hydrogen 2,2-Dimethylbutanedioate)]
% CA-SP1 Accumulation 10 nM NL4-3 (WT pNL4-3): 55.7%
CC50 at 7 days (in vitro): > 1000 nM
CC50 (human PBMCs): > 1000 nM
IC50 ([1]; isolate 92RW009, PBMC): 60.9 nM
IC50 ([1]; isolate 92UG001, PBMC): 8.1 nM
IC50 ([1]; isolate 93BR020, PBMC): 13.2 nM
IC50 ([1]; isolate 93BR029, PBMC): 14.8 nM
IC50 ([1]; isolate 93IN101, PBMC): 24.8 nM
IC50 ([1]; isolate 99UGA07412MI, PBMC): 33.2 nM
IC50 ([1]; isolate BCF02, PBMC): 38.1 nM
IC50 ([1]; isolate CMU02, PBMC): 25 nM
IC50 ([1]; isolate JV1083, PBMC): 220 nM
% CA-SP1 Accumulation 10 nM SP1 V7A (pNL4-3 SP1-V7A): 39.4 (3) %

C=C(C)[C@@H]1CC[C@]2(CCNCCN3CCN(Cc4ccc(Cl)cc4)CC3)CC[C@]3(C)[C@H](CC[C@@H]4[C@@]5(C)CC[C@H](OC(=O)CC(C)(C)C(=O)O)C(C)(C)[C@@H]5CC[C@]43C)[C@@H]12 [Compound 51n, (3β)-17-[2-[[2-[4-(4-Chlorophenylmethyl)piperazin-1-yl]ethyl]amino]ethyl]-28-norlup-20(29)-en-3-ol, 3-(1-Hydrogen 2,2-Dimethylbutanedioate)]
% CA-SP1 Accumulation 10 nM NL4-3 (WT pNL4-3): 46.9%
CC50 at 7 days (in vitro): > 1000 nM
CC50 (human PBMCs): > 1000 nM
IC50 ([1]; isolate 92RW009, PBMC): 25.9 nM
IC50 ([1]; isolate 92UG001, PBMC): 5.3 nM
IC50 ([1]; isolate 93BR020, PBMC): 12.8 nM
IC50 ([1]; isolate 93BR029, PBMC): 18.4 nM
IC50 ([1]; isolate 93IN101, PBMC): 23.3 nM
IC50 ([1]; isolate 99UGA07412MI, PBMC): 31.4 nM
IC50 ([1]; isolate BCF02, PBMC): 22 nM
IC50 ([1]; isolate CMU02, PBMC): 17.3 nM
IC50 ([1]; isolate JV1083, PBMC): 311 nM
% CA-SP1 Accumulation 10 nM SP1 V7A (pNL4-3 SP1-V7A): 38.2 (3) %
